What is called pIC50 is the negative decadic logarithm of the IC50, by convention in mol/L. As usually defined, the melting point is the temperature of the solid-liquid transition.

Results on ten molecules are retold here after patent US7928119B2, “Use of EP4 receptor ligands in the treatment of IL-6 involved diseases” (Pfizer Inc., priority 2002, dated 2011).

For data set [1], the system named is human whole blood (HWB). The data set can be described thus: Effects of EP agonists on the production of IL-6 in HWB. Format: cell-based. As to conditions: agonist 1-10 μM (up to 10 μM), 24 hrs. On the procedure:
Peripheral human whole blood (HWB) was collected from healthy volunteers into the sample tubes (nine volumes into one volume of 3.8% trisodium citrate, Becton Dickinson), and chilled at 4° C. until the experiment. HWB (50 μl) was put into the assay plate and mixed for 10 sec with plate mixer (intensity level at 4, TAITAC, Micromixer). The samples were placed for 3 min at room temperature, then 45 μl of AIM medium was added and mixed for 10 sec with plate mixer (intensity level at 4). The samples were placed for 3 min at room temperature. The mixture (100 μl) of 10-10000 nM each EP agonist and 100 μM argatroban were added to the samples, and mixed for 10 sec with plate mixer (intensity level at 4). The samples were incubated in 5% CO2 at 37° C. for 24 hrs. Then, the samples were stirred and centrifuged at 200 g for 10 minutes. The supernatants were collected, and the IL-6 concentration was measured by ELISA-Kit (Cyto screen).
The application of 1-10 μM Butaprost, an EP2 agonist, enhanced IL-6 production (FIG. 5). […] Effects of EP2 (butaprost), EP4 (11-deoxy-PGE1) and EP1/EP3 (sulprostone) agonists on the production of IL-6 in HWB was measured respectively. Each agonist was added to the HWB, and incubated in 5% CO2 at 37° C. for 24 hrs. The results represented the mean±s.d. of the results in triplicate. […]

In a further data set the test system is human PBMC. In words: PGE2 stimulation of IL-6 secretion in ConA-treated human PBMC and its inhibition by EP4 antagonists (ELISA). The format is cell-based. As to conditions: for pIC50: Homo sapiens, PBMC stimulated with 5 μg/ml ConA and 100 nM PGE2 for 24 hr, read-out: IC50 of inhibition of IL-6 production. The procedure: PBMC were stimulated with 5 μg/ml of Con A alone or with 10 nM to 1000 nM PGE2 at 37° C. for 24 hr. The secreted IL-6 in culture medium was measured by ELISA. Data are expressed as mean±s.d. (FIG. 1)
The PGE2 concentration-dependence of stimulation of IL-6 secretion by human PBMC without and with ConA-stimulation, and the inhibitory effect of Compound A. PBMC were stimulated with 5 μg/ml of Concanavalin A alone or with 10 nM to 1000 nM PGE2 at 37° C. in 5% CO2 for 24 hr. To see the effect of Compound A, 50 μM of Compound A was added simultaneously with ConA and PGE2, and incubated for 24 hr. Data in parenthesis are expressed % control of mitocondorial dehydrogenase activity. (FIG. 2)
Compound A and Compound B inhibited the IL-6 secretion in ConA-treated PBMC. (FIG. 3.) PBMC were incubated with 5 μg/ml of Con A, 100 nM PGE2 and various doses of EP4 antagonists at 37° C. for 24 hr. The secreted IL-6 in culture medium was measured by ELISA. Data are expressed as mean±s.d.
Background: An ELISA detects its analyte on a solid surface through an enzyme-linked reagent.

Another data set deals with PGE2-stimulated HWB. The data set can be described thus: Effects of EP4 antagonist on the production of IL-6 in PGE2-stimulated HWB. Format: cell-based, human. Particulars: Compound B 320-40,000 nM, 24 hrs. The procedure: Peripheral human whole blood (HWB) was collected from healthy volunteers into the sampling tubes (nine volumes into one volume of 3.8% trisodium citrate, Becton Dickinson), and chilled at 4° C. until the experiment.
Compound B (5 μl) or vehicle (AIM medium containing 0.2% DMSO) was added into 96-well culture plates. HWB (50 μl) was put into the assay plate and mixed for 10 sec with plate mixer (intensity level at 4, TAITAC, Micromixer). The samples were placed for 3 min at room temperature, and then 45 μl of AIM medium was added and mixed for 10 sec with plate mixer (intensity level at 4). The samples were placed for 3 min at room temperature. The mixture (100 μl) of 100 nM PGE2 and 100 μM argatroban was added to the samples, and mixed for 10 sec with plate mixer (intensity level at 4). The samples were incubated in 5% CO2 at 37° C. for 24 hrs. Then, the samples were stirred and centrifuged at 200 g for 10 minutes. The supernatants were collected, and the IL-6 concentration was measured by ELISA-Kit (Cyto screen).
Compound B inhibited the PGE2-stimulated IL-6 production in a dose dependent manner (FIG. 6). Diluted human whole blood samples containing Compound B were stimulated with 10-10,000 nM of PGE2 and incubated at 37° C. for 24 hrs. The IL-6 concentration in the supernatant was determined by ELISA. […]

In data set [2] the test system is ConA and PGE2 co-stimulated human whole blood. In words: IL-6 production in ConA and PGE2 co-stimulated human whole blood. The format is cell-based. On the procedure:
Compound B (50 μl), ConA and PGE2 (50 μl, 1:1) were diluted with the AIM medium (Gibco) in the appropriate concentrations (conc.) and were placed onto 96-well culture plates (assay plates). Peripheral blood was collected from healthy volunteers (nine volumes into one volume of 3.8% trisodium citrate, Becton Dickinson). Human whole-blood samples were diluted with the same volume of AIM medium, and 100 μl of diluted-blood samples were place onto the assay plates. The final DMSO conc. of assay mixtures was 0.25%. The assay mixtures were incubated in 5% CO2 at 37° C. for 24 hrs. Then, the assay mixtures were stirred and centrifuged at 200 g for 10 minutes. The supernatants were collected, and the IL-6 concentration was measured by ELISA-Kit (Cyto screen).
PGE2 enhanced IL-6 production dose dependently from 10 to 1000 nM (FIG. 7). When blood samples were stimulated with 10, 100 and 1000 nM of PGE2, the IL-6 concentrations in the assay mixtures were 1.8˜10.8 ng/ml, 4˜20 ng/ml and 5.8˜23 ng/ml, respectively. The concentrations of PGE2 (10-1000 nM) gave sufficient IL-6 production to determine the IC50s of the EP4 antagonists. […] Diluted human whole-blood samples were stimulated with 5 μg/ml of ConA and three different concentrations of PGE2 (10-1000 nM). The IL-6 concentration in the supernatant was determined after 24 hrs of incubation at 37° C. Diluted human whole blood was co-stimulated with 5 μg/ml of ConA and 100 nM of PGE2 and incubated at 37° C. for 24 hrs. The IL-6 concentration in the supernatant was determined by ELISA.

Data set [3] concerns human whole blood (HWB). In words: PGE2-induced IL-6 production assay using human whole blood (HWB). Format: cell-based. As to conditions: 100 μM, 24 hrs incubation.
Description: Peripheral human whole blood (HWB) was collected from healthy volunteers into the sample tubes (nine volumes into one volume of 3.8% trisodium citrate, Becton Dickinson), and chilled at 4° C. until the experiment. HWB (50 μl) was put into the assay plate and mixed for 10 sec with plate mixer (intensity level at 4, TAITAC, Micromixer). The samples were placed for 3 min at room temperature, then 45 μl of AIM medium was added and mixed for 10 sec with plate mixer (intensity level at 4). The samples were placed for 3 min at room temperature. The mixture (100 μl) of 10-10000 nM PGE2 and 100 μM argatroban were added to the samples, and mixed for 10 seconds with plate mixer (intensity level at 4). The samples were incubated in 5% CO2 at 37° C. for 24 hrs. Then, the samples were stirred and centrifuged at 200 g for 10 minutes. The supernatants were collected, and the IL-6 concentration was measured by ELISA-Kit (Cyto screen).
In this experiment, we have established PGE2-induced IL-6 production assay using human whole blood (HWB). To prevent fibrin synthesis, argatroban, a thrombin inhibitor, was added to the culture samples. […] Diluted human whole blood samples were stimulated with 10-10,000 nM of PGE2 and incubated at 37° C. for 24 hrs. The IL-6 concentration in the supernatant was determined by ELISA. […]
The subject of a further data set is fibrin formation. The data set can be described thus: Fibrin formation in HWB culture samples during 24 hrs incubation. More on the design: species or system human. Particulars: 100 μM.
For another data set, the system named is human whole blood cells. In words: IL-6 production in human whole blood cells. As to conditions: application of only PGE2 to human whole blood cells. The format is cell-based. The text has this:
One embodiment of this invention is a more specific therapeutic targeting system to control IL-6 production. In addition, this system is a useful method for the detection of molecular target of atherosclerosis and IL-6 related disorders.

The test system of data set [4] is human leukemic T cells of the HSB.2 cultured line. As to conditions: HSB.2 cells coexpressing EP2, EP3 and EP4; cited from earlier work.

pIC50: −log10 of the molar value. Where “and” joins values, the source holds several entries; their conditions need not be identical. Identical values can stand only once.

Description for fibrin formation: In this experiment, we have established PGE2-induced IL-6 production assay using human whole blood (HWB). To prevent fibrin synthesis, argatroban, a thrombin inhibitor, was added to the culture samples. […] Diluted human whole blood samples were stimulated with 10-10,000 nM of PGE2 and incubated at 37° C. for 24 hrs. The IL-6 concentration in the supernatant was determined by ELISA. The results represented the mean±s.d. from one representative experiment performed in triplicate.

On to `CCCCC[C@H](O)/C=C/[C@H]1CCC(=O)[C@@H]1CCCCCCC(=O)O` [11-deoxy-PGE1], for which, in the data set with human whole blood (HWB) [1], the IL-6 production entry was “enhanced”. For `O=C(O)c1cccc(C[C@@H]2CCCC=C2c2nc(-c3ccccc3)c(-c3ccccc3)o2)c1` [Compound B, 3-{[(1S)-2-(4,5-diphenyl-1,3-oxazol-2-yl)-2-cyclohexen-1-yl]methyl}benzoic acid], the pIC50 in the data set with human PBMC was 7.49. The “PGE2-stimulated IL-6 production” value in the data set with PGE2-stimulated HWB was “inhibited”. With Concanavalin A [ConA], the “secretion of IL-6” value in the data set on human PBMC (PBMC, 5 μg/ml ConA, 24 hr, without PGE2) is “enhanced”. In the case of `CCc1nc2cc(C(C)=O)ccc2n1-c1ccc(CCNC(=O)NS(=O)(=O)c2ccc(C)cc2)cc1` [Compound C, N-[({2-[4-(5-acetyl-2-ethyl-1H-benzimidazol-1-yl)phenyl]ethyl}amino)carbonyl]-4-methylbenzenesulfonamide], in data set [2] (ConA and PGE2 co-stimulated HWB), the “mode of inhibition of IL-6 production” value is on record as “competitively with PGE2”. In data set [2] (ConA and PGE2 co-stimulated HWB, Compound C 16-50,000 nM), the “inhibition of IL-6 production” value is “dose-dependent inhibition”. Consider `CCc1nc2c(C)cc(C)nc2n1-c1ccc(CCNC(=O)NS(=O)(=O)c2ccc(C)cc2)cc1` [Compound A, N-[({2-[4-(2-ethyl-5,7-dimethyl-3H-imidazo[4,5-b]pyridin-3-yl)phenyl]ethyl}amino)carbonyl]-4-methylbenzenesulfonamide], for which the “IL-6 production enhanced by PGE2” value in the data set with human PBMC (ConA-treated PBMC, 50 μM compound, PGE2 10-1000 nM, 24 hr) is “significantly inhibited”. Further, the pIC50 in the data set on human PBMC is 7.89.

As to `CC1CNc2c(cccc2S(=O)(=O)N[C@@H](CCCNC(=N)N)C(=O)N2CC[C@@H](C)C[C@@H]2C(=O)O)C1` (stereo partly drawn) [argatroban], the “amount of IL-6 production” value in the data set with human whole blood (HWB) [3] was “did not affect”. Also, the “fibrin formation in the blood samples” value with fibrin formation is on record as “inhibited”. On to `CCCC1([C@H](O)C/C=C/[C@H]2[C@H](O)CC(=O)[C@@H]2CCCCCCC(=O)OC)CCC1` [Butaprost], for which the IL-6 production result in the data set with human whole blood (HWB) [1] was “enhanced”. `CCCCC[C@H](O)/C=C/[C@H]1[C@H](O)CC(=O)[C@@H]1C/C=C\CCCC(=O)O` [PGE2, Prostaglandin E2]: the “secretion of IL-6” value in the data set with human PBMC (ConA unstimulated PBMC, 10-1000 nM PGE2) is “did not affect”. In the data set with human PBMC (PBMC, 5 μg/ml ConA, 24 hr, […] PGE2 (so in the source)), the “IL-6 secretion further enhanced, compared with ConA stimulation without PGE2” value is 3.5 fold and 5.7 fold and 10.1 fold. The IL-6 production entry was “enhanced” in [2] (ConA-stimulated HWB, PGE2 10 to 1000 nM); “enhanced IL-6 production to a great extent” in the data set with human whole blood cells; “enhanced” in data set [4]. In the case of `CCCC(=O)Nc1ncnc2c1ncn2[C@@H]1O[C@@H]2COP(=O)(O)O[C@H]2[C@H]1OC(=O)CCC` [dibutyryl-cAMP], the IL-6 production entry in data set [4] is listed as “mimicked”. As to `Cc1ccc(S(=O)(=O)NC(=O)NCCc2ccc(-n3c(C(C)O)nc4cc(C(F)(F)F)c(Cl)cc43)cc2)cc1` (stereo not drawn) [Example 367, N-{[(2-{4-[6-CHLORO-2-(1-HYDROXYETHYL)-5-(TRIFLUOROMETHYL)-1H-BENZIMIDAZOL-1-YL]PHENYL}ETHYL)AMINO]CARBONYL}-4-METHYLBENZENESULFONAMIDE], the melting point worked out at 220 °C.
